Usually MIC stands for the lowest concentration found to suppress growth.

SMILES strings stand for the structures. In brackets after ≈: the same amount, converted by molar mass.

The first test relates to H37Rv strain of Mycobacterium tuberculosis. The test can be described thus: MIC against H37Rv strain. The class given is cell-based. Conditions: Mycobacterium tuberculosis, H37RV. As for the experimental part:
The purpose of this study was to test activity of selected tetracycline compounds against the H37Rv strain of Mycobacterium tuberculosis. Minimum inhibitory concentrations (MIC) of different tetracycline compounds against H37Rv strain were determined and are shown in Table 8.
Compound `CN(C)c1cc(CNC(=O)Oc2ccc(Br)cc2)c(O)c2c1C[C@H]1C[C@H]3[C@H](N(C)C)C(O)=C(C(N)=O)C(=O)[C@@]3(O)C(O)=C1C2=O` [Compound 21] showed an MIC of 16 µg/mL (≈ 23.3 µM). Turning to `Cc1ccc(OC(=O)NCc2cc(N(C)C)c3c(c2O)C(=O)C2=C(O)[C@]4(O)C(=O)C(C(N)=O)=C(O)[C@@H](N(C)C)[C@@H]4C[C@@H]2C3)cc1` [Compound 20], the minimal inhibitory concentration (MIC) was above 32 µg/mL. Regarding `CN(C)c1cc(CNC(=O)Oc2ccccc2)c(O)c2c1C[C@H]1C[C@H]3[C@H](N(C)C)C(O)=C(C(N)=O)C(=O)[C@@]3(O)C(O)=C1C2=O` [Compound 10], the MIC was above 32 µg/mL.

Staying with this test, now noted: Mycobacterium tuberculosis, H37RV; read-out: MIC.
For `CCCCOC(=O)NCc1cc(N(C)C)c2c(c1O)C(=O)C1=C(O)[C@]3(O)C(=O)C(C(N)=O)=C(O)[C@H](N(C)C)[C@@H]3C[C@@H]1C2` [Compound 12], the MIC is above 32 µg/mL. As to `CN(C)c1cc(CNC(N)=S)c(O)c2c1C[C@H]1C[C@H]3[C@H](N(C)C)C(O)=C(C(N)=O)C(=O)[C@@]3(O)C(O)=C1C2=O` [Compound 61], the MIC is above 32 µg/mL. For the compound `CN(C)c1cc(CN(Cc2ccn[nH]2)Cc2ccn[nH]2)c(O)c2c1C[C@H]1C[C@H]3[C@H](N(C)C)C(O)=C(C(N)=O)C(=O)[C@@]3(O)C(O)=C1C2=O` [Compound 55], the MIC is above 32 µg/mL. Take `C=CCCOC(=O)NCc1cc(N(C)C)c2c(c1O)C(=O)C1=C(O)[C@]3(O)C(=O)C(C(N)=O)=C(O)[C@@H](N(C)C)[C@@H]3C[C@@H]1C2` [Compound 9]: the minimal inhibitory concentration (MIC) is above 32 µg/mL.

Take `CCc1cc(CNC(=O)c2cccnc2)c(O)c2c1C[C@H]1C[C@H]3[C@H](N(C)C)C(O)=C(C(N)=O)C(=O)[C@@]3(O)C(O)=C1C2=O` [Compound 1]: the MIC was above 32 µg/mL. Take `CN(C)c1cc(CNC(=O)[C@@H]2CCCN2C)c(O)c2c1C[C@H]1C[C@H]3[C@@H](N(C)C)C(O)=C(C(N)=O)C(=O)[C@@]3(O)C(O)=C1C2=O` [Compound 71]: the MIC came out at 16 µg/mL (≈ 26.8 µM).

For `CN(C)c1cc(CNCC2CCSCC2)c(O)c2c1C[C@H]1C[C@H]3C(N(C)C)C(O)=C(C(N)=O)C(=O)[C@@]3(O)C(O)=C1C2=O` (stereo partly shown) [Compound 50], the MIC is above 32 µg/mL. Still for that read-out and setting: as for `CCCCNCc1cc(N(C)C)c2c(c1O)C(=O)C1=C(O)[C@]3(O)C(=O)C(C(N)=O)=C(O)[C@H](N(C)C)[C@@H]3C[C@@H]1C2` [Compound 15], the figure is 32 µg/mL (≈ 59 µM); as for `CN(C)c1cc(CNCc2cc(F)c(F)c(F)c2)c(O)c2c1C[C@H]1C[C@H]3C(N(C)C)C(O)=C(C(N)=O)C(=O)[C@@]3(O)C(O)=C1C2=O` (stereo partly shown) [Compound 77], above 32 µg/mL; as for `CN(C)C1C(O)=C(C(N)=O)C(=O)[C@@]2(O)C(O)=C3C(=O)c4c(O)c(CNC(=O)C5CC5)cc(-c5ccc(C(C)(C)C)cc5)c4C[C@H]3C[C@@H]12` (stereo partly shown) [Compound 31], above 32 µg/mL. As to `CN(C)c1ccc(NC(=O)NCc2cc(N(C)C)c3c(c2O)C(=O)C2=C(O)[C@]4(O)C(=O)C(C(N)=O)=C(O)[C@@H](N(C)C)[C@@H]4C[C@@H]2C3)cc1` [Compound 26], the MIC was found to be 32 µg/mL (≈ 49.3 µM). On to `CN(C)c1cc(CNc2nc(-c3ccc(F)cc3)cs2)c(O)c2c1C[C@H]1C[C@H]3C(N(C)C)C(O)=C(C(N)=O)C(=O)[C@@]3(O)C(O)=C1C2=O` (stereo partly shown) [Compound 75], for which the MIC is above 32 µg/mL. Consider `CN(C)Cc1cc(N(C)C)c2c(c1O)C(=O)C1=C(O)[C@]3(O)C(=O)C(C(N)=O)=C(O)[C@@H](N(C)C)[C@@H]3C[C@@H]1C2` [Compound 40], for which the MIC was determined as 32 µg/mL (≈ 62.2 µM). On the same count and under the same terms, with `CC(C)NCc1cc(N(C)C)c2c(c1O)C(=O)C1=C(O)[C@]3(O)C(=O)C(C(N)=O)=C(O)[C@H](N(C)C)[C@@H]3C[C@@H]1C2` [Compound 39] the figure was above 32 µg/mL; with `CN(C)c1cc(CNCc2cc[n+]([O-])cc2)c(O)c2c1C[C@H]1C[C@H]3[C@H](N(C)C)C(O)=C(C(N)=O)C(=O)[C@@]3(O)C(O)=C1C2=O` [Compound 54], 32 µg/mL (≈ 53.9 µM); with `CN(C)c1cc(CNCc2ccc(C#N)cc2)c(O)c2c1C[C@H]1C[C@H]3C(N(C)C)C(O)=C(C(N)=O)C(=O)[C@@]3(O)C(O)=C1C2=O` (stereo partly shown) [Compound 78], 32 µg/mL (≈ 53.2 µM). For `CN1CCC(NCc2cc(N(C)C)c3c(c2O)C(=O)C2=C(O)[C@]4(O)C(=O)C(C(N)=O)=C(O)[C@@H](N(C)C)[C@@H]4C[C@@H]2C3)CC1` [Compound 47], the MIC is above 32 µg/mL.

As for `CN(C)c1cc(CNC(=O)C2CCCN2)c(O)c2c1C[C@H]1C[C@H]3C(N(C)C)C(O)=C(C(N)=O)C(=O)[C@@]3(O)C(O)=C1C2=O` (stereo partly shown) [Compound 58], the MIC was found to be 16 µg/mL (≈ 27.4 µM). On the same count and under the same terms, as for `CN(C)c1cc(CNCc2ccccc2)c(O)c2c1C[C@H]1C[C@H]3[C@H](N(C)C)C(O)=C(C(N)=O)C(=O)[C@@]3(O)C(O)=C1C2=O` [Compound 66], the figure is above 32 µg/mL; as for `CC(C)CNCc1cc(N(C)C)c2c(c1O)C(=O)C1=C(O)[C@]3(O)C(=O)C(C(N)=O)=C(O)C(N(C)C)[C@@H]3C[C@@H]1C2` (stereo partly shown) [Compound 45], 32 µg/mL (≈ 59 µM); as for `CN(C)c1cc(CNc2ccccc2)c(O)c2c1C[C@H]1C[C@H]3[C@H](N(C)C)C(O)=C(C(N)=O)C(=O)[C@@]3(O)C(O)=C1C2=O` [Compound 82], above 32 µg/mL. The same measure, in the same setting: with `CN(C)[C@@H]1C(O)=C(C(N)=O)C(=O)[C@@]2(O)C(O)=C3C(=O)c4c(O)c(CNC(=O)c5cccnc5)cc(CCC5CCCCC5)c4C[C@H]3C[C@@H]12` [Compound 2] the figure was above 32 µg/mL.

Turning to `CN(C)c1cc(CNCc2cccn2C)c(O)c2c1C[C@H]1C[C@H]3[C@H](N(C)C)C(O)=C(C(N)=O)C(=O)[C@@]3(O)C(O)=C1C2=O` [Compound 38], the MIC is above 32 µg/mL. Turning to `CN(C)c1cc(CNC(=O)C2(N)CC2)c(O)c2c1C[C@H]1C[C@H]3[C@H](N(C)C)C(O)=C(C(N)=O)C(=O)[C@@]3(O)C(O)=C1C2=O` [Compound 59], the MIC stood at 16 µg/mL (≈ 28.1 µM). The same measure, in the same setting: with `CN(C)c1cc(CNC(=O)c2ccno2)c(O)c2c1C[C@H]1C[C@H]3C(N(C)C)C(O)=C(C(N)=O)C(=O)[C@@]3(O)C(O)=C1C2=O` (stereo partly shown) [Compound 52] the figure was 16 µg/mL (≈ 27.5 µM).

As for `CN(C)c1cc(CNCCc2ccccc2)c(O)c2c1C[C@H]1C[C@H]3C(N(C)C)C(O)=C(C(N)=O)C(=O)[C@@]3(O)C(O)=C1C2=O` (stereo partly shown) [Compound 5], the MIC was above 32 µg/mL.

Turning to `CN(C)c1cc(CNCC2CCCCC2)c(O)c2c1C[C@H]1C[C@H]3[C@H](N(C)C)C(O)=C(C(N)=O)C(=O)[C@@]3(O)C(O)=C1C2=O` [Compound 57], the MIC was found to be 32 µg/mL (≈ 54.9 µM). For `CCc1cc(CNCC(C)C)c(O)c2c1C[C@H]1C[C@H]3[C@H](N(C)C)C(O)=C(C(N)=O)C(=O)[C@@]3(O)C(O)=C1C2=O` [Compound 30], the MIC was above 32 µg/mL. The same measure, in the same setting: with `CN(C)c1cc(CNc2nc(C(F)(F)F)cs2)c(O)c2c1C[C@H]1C[C@H]3C(N(C)C)C(O)=C(C(N)=O)C(=O)[C@@]3(O)C(O)=C1C2=O` (stereo partly shown) [Compound 76] the figure was above 32 µg/mL; with `CN(C)c1cc(CNC(=O)OCC(C)(C)C)c(O)c2c1C[C@H]1C[C@H]3[C@H](N(C)C)C(O)=C(C(N)=O)C(=O)[C@@]3(O)C(O)=C1C2=O` [Compound 8], above 32 µg/mL. On to `CN(C)c1cc(CNC2CCCC2)c(O)c2c1C[C@H]1C[C@H]3C(N(C)C)C(O)=C(C(N)=O)C(=O)[C@@]3(O)C(O)=C1C2=O` (stereo partly shown) [Compound 43], for which the minimal inhibitory concentration (MIC) was above 32 µg/mL. On to `Cc1csc(NCc2cc(N(C)C)c3c(c2O)C(=O)C2=C(O)[C@]4(O)C(=O)C(C(N)=O)=C(O)C(N(C)C)[C@@H]4C[C@@H]2C3)n1` (stereo partly shown) [Compound 62], for which the MIC is above 32 µg/mL. Turning to `CC(CCO)NCc1cc(N(C)C)c2c(c1O)C(=O)C1=C(O)[C@]3(O)C(=O)C(C(N)=O)=C(O)[C@H](N(C)C)[C@@H]3C[C@@H]1C2` (stereo partly shown) [Compound 44], the MIC is above 32 µg/mL. With `CCc1cc(CNC(=O)CN(C)C)c(O)c2c1C[C@H]1C[C@H]3[C@@H](N(C)C)C(O)=C(C(N)=O)C(=O)[C@@]3(O)C(O)=C1C2=O` [Compound 36], the MIC came out at 32 µg/mL (≈ 57.5 µM). With `CN(C)CC(=O)NCc1cc(N(C)C)c2c(c1O)C(=O)C1=C(O)[C@]3(O)C(=O)C(C(N)=O)=C(O)C(N(C)C)[C@@H]3C[C@@H]1C2` (stereo partly shown) [Compound 60], the MIC came out at 16 µg/mL (≈ 28 µM).

Turning to `CCOC(=O)c1csc(NCc2cc(N(C)C)c3c(c2O)C(=O)C2=C(O)[C@]4(O)C(=O)C(C(N)=O)=C(O)C(N(C)C)[C@@H]4C[C@@H]2C3)n1` (stereo partly shown) [Compound 63], the MIC was above 32 µg/mL. Same read-out and setting: as for `Cc1noc(C)c1S(=O)(=O)NCc1cc(N(C)C)c2c(c1O)C(=O)C1=C(O)[C@]3(O)C(=O)C(C(N)=O)=C(O)[C@@H](N(C)C)[C@@H]3C[C@@H]1C2` [Compound 67], the figure is above 32 µg/mL; as for `CCOC(=O)NCc1cc(N(C)C)c2c(c1O)C(=O)C1=C(O)[C@]3(O)C(=O)C(C(N)=O)=C(O)[C@H](N(C)C)[C@@H]3C[C@@H]1C2` [Compound 13], 16 µg/mL (≈ 28.6 µM). As to `CN(C)c1cc(CNCC(C)(C)C)c(O)c2c1C[C@H]1C[C@H]3C(N(C)C)C(O)=C(C(N)=O)C(=O)[C@@]3(O)C(O)=C1C2=O` (stereo partly shown) [Compound 29], the MIC was determined as 32 µg/mL (≈ 57.5 µM).

On to `CN(C)c1cc(CNCC2CC2)c(O)c2c1C[C@H]1C[C@H]3[C@H](N(C)C)C(O)=C(C(N)=O)C(=O)[C@@]3(O)C(O)=C1C2=O` [Compound 65], for which the MIC is 16 µg/mL (≈ 29.6 µM). For the compound `C[C@H]1c2ccc(CNCCc3ccccc3)c(O)c2C(=O)C2=C(O)[C@]3(O)C(=O)C(C(N)=O)=C(O)[C@@H](N(C)C)[C@@H]3[C@@H](O)[C@@H]21` [Compound 35], the MIC is above 32 µg/mL. Still for that read-out and setting: as for `CN(C)c1cc(CN2CCCCC2)c(O)c2c1C[C@H]1C[C@H]3[C@H](N(C)C)C(O)=C(C(N)=O)C(=O)[C@@]3(O)C(O)=C1C2=O` [Compound 56], the figure is 16 µg/mL (≈ 28.8 µM); as for `COCCOC(=O)NCc1cc(N(C)C)c2c(c1O)C(=O)C1=C(O)[C@]3(O)C(=O)C(C(N)=O)=C(O)[C@@H](N(C)C)[C@@H]3C[C@@H]1C2` [Compound 19], above 32 µg/mL.

The values are drawn from patent US20250332178A1, “METHODS OF TREATING MYCOBACTERIAL INFECTIONS USING TETRACYCLINE COMPOUNDS” (priority 2018, published 2025).
